Measurements from the supplement of paper PMC13380429.

Legend:
Settings in all cases: 72 h
Caco-2 [1] = assay: cell viability relative to DMSO; higher = less toxic
Calu-3 [2] = assay: as above
HepG2 [3] = assay: as above
U2OS [4] = assay: as above
Vero E6 [5] = assay: as above
Caco-2 [6] = assay: relative viability EC50 (midpoint between 100% and the lowest measured viability); higher = less toxic
Calu-3 [7] = assay: as above
HepG2 [8] = assay: as above
U2OS [9] = assay: as above
Vero E6 [10] = assay: as above
Caco-2 [11] = assay: drug sensitivity score (DSS) for viability; higher = more toxic; extreme values may be limits of the assay
Calu-3 [12] = assay: as above
HepG2 [13] = assay: as above
U2OS [14] = assay: as above
Vero E6 [15] = assay: as above

| SMILES | cell viability (Caco-2 [1]; 1 nM) | cell viability (Caco-2 [1]; 10 nM) | cell viability (Caco-2 [1]; 100 nM) | cell viability (Caco-2 [1]; 1000 nM) | cell viability (Caco-2 [1]; 10000 nM) | cell viability (Calu-3 [2]; 1 nM) | cell viability (Calu-3 [2]; 10 nM) | cell viability (Calu-3 [2]; 100 nM) | cell viability (Calu-3 [2]; 1000 nM) | cell viability (Calu-3 [2]; 10000 nM) | cell viability (HepG2 [3]; 1 nM) | cell viability (HepG2 [3]; 10 nM) | cell viability (HepG2 [3]; 100 nM) | cell viability (HepG2 [3]; 1000 nM) | cell viability (HepG2 [3]; 10000 nM) | cell viability (U2OS [4]; 1 nM) | cell viability (U2OS [4]; 10 nM) | cell viability (U2OS [4]; 100 nM) | cell viability (U2OS [4]; 1000 nM) | cell viability (U2OS [4]; 10000 nM) | cell viability (Vero E6 [5]; 1 nM) | cell viability (Vero E6 [5]; 10 nM) | cell viability (Vero E6 [5]; 100 nM) | cell viability (Vero E6 [5]; 1000 nM) | cell viability (Vero E6 [5]; 10000 nM) | relative viability EC50 (Caco-2 [6]) | relative viability EC50 (Calu-3 [7]) | relative viability EC50 (HepG2 [8]) | relative viability EC50 (U2OS [9]) | relative viability EC50 (Vero E6 [10]) | drug sensitivity score (Caco-2 [11]) | drug sensitivity score (Calu-3 [12]) | drug sensitivity score (HepG2 [13]) | drug sensitivity score (U2OS [14]) | drug sensitivity score (Vero E6 [15]) |
| --- | --- | --- | --- | --- | --- | --- | --- | --- | --- | --- | --- | --- | --- | --- | --- | --- | --- | --- | --- | --- | --- | --- | --- | --- | --- | --- | --- | --- | --- | --- | --- | --- | --- | --- | --- |
| O=S(=O)(O)c1ccc2[nH]c(-c3ccccc3)nc2c1 [phenylbenzimidazole-sulfonic-acid] | 98.9% | 95.8% | 90.3% | 93% | 96.8% | 111% | 112% | 106% | 105% | 89.2% | 85.6% | 93% | 93.2% | 94.3% | 99.2% | 97.9% | 96.7% | 103% | 99.3% | 99.4% | 96.3% | 89.7% | 97.3% | 96.7% | 107% | > 10 µM | > 10 µM | > 10 µM | > 10 µM | > 10 µM | 0 | 0 | 0 | 0 | 0 |
| CNC(=S)C1(c2ccccn2)CCCS1 (stereo not given) [picartamide] | 94.1% | 96.8% | 92.9% | 95.1% | 99.4% | 96.9% | 93% | 102% | 106% | 106% | 98.3% | 93.6% | 103% | 99.6% | 97.8% | 99.5% | 104% | 96.2% | 99.4% | 106% | 103% | 96.5% | 106% | 101% | 93.7% | > 10 µM | > 10 µM | > 10 µM | > 10 µM | > 10 µM | 0 | 0 | 0 | 0 | 0 |
| Cc1cccc(C)c1NC(=O)CC12CCCN1CCC2 [pilsicainide] | 104% | 83.8% | 95% | 94.7% | 91.9% | 106% | 94.6% | 87.8% | 102% | 94.7% | 86.5% | 102% | 90.2% | 99.4% | 91.1% | 96.3% | 92.8% | 99.4% | 94.7% | 102% | 102% | 98.7% | 99.9% | 100% | 100% | > 10 µM | > 10 µM | > 10 µM | > 10 µM | > 10 µM | 0 | 0 | 0 | 0 | 0 |
| CC(C)(C)C(=O)OCOC(=O)[C@@H]1N2C(=O)[C@@H](/N=C/N3CCCCCC3)[C@H]2SC1(C)C [pivmecillinam] | 88.8% | 92.9% | 93.3% | 90.7% | 97.2% | 90.9% | 93.1% | 97.9% | 94.9% | 112% | 94.7% | 92.7% | 96.1% | 95.5% | 91.9% | 102% | 99.8% | 103% | 98.9% | 104% | 106% | 102% | 96.6% | 104% | 92.8% | > 10 µM | > 10 µM | > 10 µM | > 10 µM | > 10 µM | 0 | 0 | 0 | 0 | 0 |
| CCC/N=C1\S/C(=C\c2ccc(OC[C@H](O)CO)c(Cl)c2)C(=O)N1c1ccccc1C [ponesimod] | 91.2% | 100% | 95.6% | 99% | 79.6% | 90.5% | 103% | 105% | 105% | 108% | 95.8% | 89.6% | 99.5% | 102% | 91.6% | 98.5% | 100% | 100% | 101% | 98.4% | 100% | 94% | 91.5% | 91.5% | 93.7% | > 10 µM | > 10 µM | > 10 µM | > 10 µM | > 10 µM | 0.7 | 0 | 0 | 0 | 0 |
| CCC1(c2ccccc2)C(=O)NCNC1=O [primidone] | 93.1% | 100% | 84.5% | 101% | 115% | 102% | 94.8% | 105% | 94.1% | 114% | 112% | 78.9% | 89.4% | 84.9% | 96.3% | 102% | 98.3% | 101% | 102% | 107% | 94.5% | 95.1% | 92% | 92.2% | 95.3% | > 10 µM | > 10 µM | > 10 µM | > 10 µM | > 10 µM | 0 | 0 | 0.2 | 0 | 0 |
| C[C@H](NCc1ccc(OCc2ccccc2F)cc1)C(N)=O [priralfinamide] | 97.8% | 104% | 91.6% | 95% | 91.2% | 103% | 95.2% | 105% | 91.5% | 99.5% | 98% | 87.3% | 98.5% | 97.4% | 93.6% | 99.2% | 102% | 96.5% | 99.6% | 97.6% | 99.5% | 95.3% | 99.4% | 92.3% | 91.7% | > 10 µM | > 10 µM | > 10 µM | > 10 µM | > 10 µM | 0 | 0 | 0 | 0 | 0 |
